Columns and labels:
Assay in all cases: Test E postemergence
fall panicum = assay type: in vivo, Panicum dichotomiflorum
Description: Seeds of plant species selected from corn (Zea mays), soybean (Glycine max), velvetleaf (Abutilon theophrasti), lambsquarters (Chenopodium album), wild poinsettia (Euphorbia heterophylla), palmer pigweed (Amaranthus palmeri), waterhemp (common waterhemp, Amaranthus rudis), surinam grass (Brachiaria decumbens), large (Lg) crabgrass (Digitaria sanguinalis), Brazilian crabgrass (Digitaria horizontalis), fall panicum (Panicum dichotomiflorum), giant foxtail (Setaria faberii), green foxtail (Setaria viridis), goosegrass (Eleusine indica), johnsongrass (Sorghum halepense), ragweed (common ragweed, Ambrosia elatior), barnyardgrass (Echinochloa crus-galli), sandbur (southern sandbur, Cenchrus echinatus), arrowleaf sida (Sida rhombifolia), Italian ryegrass (Lolium multiflorum), dayflower (Virginia (VA) dayflower, Commelina virginica), field bindweed (Convolvulus arvensis), morningglory (Ipomoea coccinea), nightshade (eastern black nightshade, Solanum ptycanthum), kochia (Kochia scoparia), yellow nutsedge (Cyperus esculentus), cocklebur (common cocklebur, Xanthium strumarium), smartweed (ladysthumb smartweed, and hairy beggarticks (Bidens pilosa), were planted into a silt loam soil and treated preemergence with test chemicals formulated in a non-phytotoxic solvent mixture which included a surfactant.
At the same time, plants from these crop and weed species and also horseweed (Canada horseweed, Conyza canadensis), waterhemp_RES1, (ALS & Triazine resistant common waterhemp, Amaranthus rudis), and waterhemp_RES2, (ALS & HPPD resistant common waterhemp, Amaranthus rudis) were planted in pots containing Redi-Earth® planting medium (Scotts Company, 14111 Scottslawn Road, Marysville, Ohio 43041) comprising spaghnum peat moss, vermiculite, wetting agent and starter nutrients were treated with postemergence applications of test chemicals formulated in the same manner. Plants ranged in height from 2 to 18 cm for postemergence treatments (1- to 4-leaf stage). Treated plants and controls were maintained in a greenhouse for 14 to 21 days, after which time all species were compared to controls and visually evaluated. Plant response ratings, summarized in Table E, are based on a scale of 0 to 100 where 0 is no effect and 100 is complete control. A dash (-) response means no test result.

sandbur = assay type: in vivo, Cenchrus echinatus
In short: (§1)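 Test chemicals formulated in a non-phytotoxic solvent mixture containing a surfactant were applied preemergence to seeds in silt loam soil or postemergence to plants at the 1- to 4-leaf stage in potting mix. After 14 to 21 days in a greenhouse, injury was visually rated against controls on a 0-100 scale (0 = no effect, 100 = complete control).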

waterhemp = assay type: in vivo, Amaranthus rudis
In short: as §1

[1] = tested on: waterhemp_RES2 (ALS & HPPD resistant common waterhemp); assay type: in vivo, Amaranthus rudis
In short: as §1

[2] = tested on: waterhemp_RES1 (ALS & Triazine resistant common waterhemp); assay type: in vivo, Amaranthus rudis
In short: as §1

arrowleaf sida = assay type: in vivo, Sida rhombifolia
In short: as §1

[3] = Postemergence, 31 g ai/ha, scale 0 to 100
[4] = Postemergence, 62 g ai/ha, scale 0 to 100
[5] = Postemergence, 125 g ai/ha, scale 0 to 100
[6] = postemergence, 16 g ai/ha, scale 0 to 100, 0 no effect, 100 complete control
[7] = postemergence, 8 g ai/ha, scale 0 to 100, 0 no effect, 100 complete control

| Compound | Plant response rating, Panicum, Fall (fall panicum; [3]) | Plant response rating, Panicum, Fall (fall panicum; [4]) | Plant response rating, Panicum, Fall (fall panicum; [5]) | Plant response rating, Panicum, Fall (fall panicum; [6]) | Plant response rating, Sandbur (sandbur; [3]) | Plant response rating, Sandbur (sandbur; [4]) | Plant response rating, Sandbur (sandbur; [5]) | Plant response rating, Sandbur (sandbur; [6]) | Plant response rating, Waterhemp (waterhemp; [3]) | Plant response rating, Waterhemp (waterhemp; [4]) | Plant response rating, Waterhemp (waterhemp; [5]) | Plant response rating, Waterhemp (waterhemp; [6]) | Plant response rating, Waterhemp_RES2 [1, 3] | Plant response rating, Waterhemp_RES2 [1, 4] | Plant response rating, Waterhemp_RES2 [1, 5] | Plant response rating, Waterhemp_RES2 [1, 6] | Plant response rating, Waterhemp_RES1 [2, 3] | Plant response rating, Waterhemp_RES1 [2, 4] | Plant response rating, Waterhemp_RES1 [2, 5] | Plant response rating, Waterhemp_RES1 [2, 6] | also measured |
| --- | --- | --- | --- | --- | --- | --- | --- | --- | --- | --- | --- | --- | --- | --- | --- | --- | --- | --- | --- | --- | --- |
| Clc1cnc(Oc2cccc(Cl)c2-n2cc(I)cn2)nc1 [Compound 181] | 20 | 50 | 30 | 20 | 15 | 10 | 20 | 5 | 95 | 95 | 98 | 65 | 95 | 98 | 100 | 85 | 95 | 90 | 95 | 90 | Plant response rating, Arrowleaf Sida (arrowleaf sida; [3]): 75; Plant response rating, Arrowleaf Sida (arrowleaf sida; [4]): 70; Plant response rating, Arrowleaf Sida (arrowleaf sida; [5]): 95; Plant response rating, Arrowleaf Sida (arrowleaf sida; [6]): 60 |
| FC(F)(F)c1cnn(-c2c(Br)cccc2Oc2ncc(Cl)cn2)c1 [Compound 191] | 5 | 10 | 20 | 0 | 0 | 0 | 10 | 0 | 90 | 90 | 95 | 70 | 95 | 95 | 100 | 90 | 80 | 90 | 95 | 70 | Plant response rating, Panicum, Fall (fall panicum; [7]): 0; Plant response rating, Sandbur (sandbur; [7]): 0; Plant response rating, Waterhemp (waterhemp; [7]): 60; Plant response rating, Waterhemp_RES1 [2, 7]: 50; Plant response rating, Arrowleaf Sida (arrowleaf sida; [3]): 70; Plant response rating, Arrowleaf Sida (arrowleaf sida; [4]): 70; Plant response rating, Arrowleaf Sida (arrowleaf sida; [5]): 100; Plant response rating, Arrowleaf Sida (arrowleaf sida; [7]): 50; Plant response rating, Arrowleaf Sida (arrowleaf sida; [6]): 60 |
